Assay results from ChEMBL document CHEMBL1126351, “()-7-deazacarbovir as a compound with potential anti-hiv and anti-hcmv properties” (Bioorg Med Chem Lett, 1992).
pEC50, pIC50: −log10 of the molar value.

System: HFF
Assay: Compound was evaluated for CPE inhibition using anti-HCMV assay in AD169 strain infected HFF cells
Type: functional, cell-based
Details: Homo sapiens

Nc1nc(O)c2ccn(C3C=CC(CO)C3)c2n1 (configuration not stated)
pEC50: 3.46
pIC50: < 3.39
